Six compounds from patent US6545032B1, “Synthesis of [3,5,7]-H-imidazo[1,5-a] imidazol-2(3H)-one compounds” (Torrey Pines Institute for Molecular Studies, priority 1999, dated 2003) can be followed below.

The target of assay [1] is T1, mu opiate receptor (Rattus norvegicus, UniProt P33535).
T1 construct: from tissue; host or cells: rat brain membranes/homogenate
Nature of the assay: Inhibition of [3H]DAMGO binding to the mu opiate receptor in rat brain homogenates. The following applies: 0.08 mg of compound per milliliter, 7 nM 3H-labeled DAMGO, rat brain membranes; for % Bound: [3H]DAMGO bound; for Mean: mean bound radioactivity of [3H]DAMGO; for Minus NSB*: mean minus non-specific binding; for % Inhibition: percent inhibition of DAMGO binding. Also noted: Mean: unit not given beside the values. In outline:
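Members of an imidazo-imidazolone compound library were tested for blocking binding of [^3H]DAMGO, a mu opiate receptor-specific ligand, to rat brain membranes. Each 0.65 mL tube held 0.08 mg of compound mixture per milliliter, 0.5 mL membrane suspension (0.1 mg of protein) and 7 nM ^3H-labeled DAMGO (36 Ci/mmol) in 50 mM Tris-HCl buffer (pH 7.4).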

Assay [2] deals with T2, kappa opiate receptor (Cavia porcellus, UniProt P41144).
T2 construct: guinea pig cortices and cerebella were homogenized in 40 mL of Buffer A; from tissue; host or cells: guinea pig cortices and cerebella, crude membrane suspension
T2 sequence (P41144 whole entry): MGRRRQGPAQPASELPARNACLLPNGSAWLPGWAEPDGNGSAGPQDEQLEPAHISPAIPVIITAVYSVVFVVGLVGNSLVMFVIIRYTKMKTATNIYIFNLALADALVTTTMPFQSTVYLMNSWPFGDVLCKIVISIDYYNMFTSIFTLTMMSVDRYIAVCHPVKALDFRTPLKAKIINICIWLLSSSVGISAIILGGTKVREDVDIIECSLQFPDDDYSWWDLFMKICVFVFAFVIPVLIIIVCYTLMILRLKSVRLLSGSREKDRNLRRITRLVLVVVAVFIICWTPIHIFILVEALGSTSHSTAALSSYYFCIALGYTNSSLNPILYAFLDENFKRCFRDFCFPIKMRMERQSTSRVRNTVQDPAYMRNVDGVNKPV
Description: Inhibition of tritiated U69,593 binding to the kappa opiate receptor in guinea pig brain homogenates. The following applies: 3 nm tritiated U69,593, guinea pig brain membranes; for % Bound: [3H]U69,593 bound; for % Inhibition: inhibition of [3H]U69,593 binding; for Mean: mean bound radioactivity of [3H]U69,593, 2.5 hours 25° C.; for Minus NSB: mean minus non-specific binding. The arrangement: Mean: unit not given beside the values. An outline of the steps:
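Guinea pig cortex and cerebellum membranes in 50 mM Tris-HCl pH 7.4 incubated with 3 nM [³H]U69,593 for 2.5 h at 25 °C, then filtered and bound radioactivity counted. Unlabelled U50,488 served as competitor for standard curve and nonspecific binding.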

T1 sequence (P33535 whole entry): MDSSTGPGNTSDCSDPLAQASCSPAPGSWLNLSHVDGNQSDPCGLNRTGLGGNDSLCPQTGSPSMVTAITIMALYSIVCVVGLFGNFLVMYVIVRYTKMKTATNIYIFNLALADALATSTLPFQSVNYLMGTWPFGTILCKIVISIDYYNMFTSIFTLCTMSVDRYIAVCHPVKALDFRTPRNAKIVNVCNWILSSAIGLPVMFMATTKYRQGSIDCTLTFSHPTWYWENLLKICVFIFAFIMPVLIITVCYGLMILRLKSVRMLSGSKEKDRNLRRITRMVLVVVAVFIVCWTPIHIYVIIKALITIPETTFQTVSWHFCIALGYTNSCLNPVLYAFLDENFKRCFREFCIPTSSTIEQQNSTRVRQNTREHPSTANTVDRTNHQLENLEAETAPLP

Broadly, the % Inhibition is how much of the control response was suppressed. On to `CC(C)c1nc(CCC2CCCC2)n2c1NC(=O)C2C(C)C` (stereo not drawn) [Pool 146], for which, in assay [1], the “% Bound” value was determined as 67%, the Mean is listed as 945.85, the “Minus NSB*” value stood at 637.85 and the “% Inhibition” value was determined as 33%. In assay [2], the “% Bound” value stood at 69.088%, the “% Inhibition” value was determined as 30.912%, the Mean turned out to be 1622.75 and the “Minus NSB” value came to 715.75.

With `CC(C)c1nc(CCC2CCCCC2)n2c1NC(=O)C2C(C)C` (stereo not drawn) [Pool 148], in assay [1], the “% Bound” value is recorded as 61%, the Mean came out at 890.8, the “Minus NSB*” value came out at 582.80 and the “% Inhibition” value amounted to 39%. In addition, in assay [2], the “% Bound” value worked out at 89.971%, the “% Inhibition” value is given as 10.029%, the Mean was found to be 1839.1 and the “Minus NSB” value is recorded as 932.10.

Regarding `CC1CCC(Cc2nc(C(C)C)c3n2C(C(C)C)C(=O)N3)CC1` (stereo not drawn) [Pool 152], in assay [1], the “% Bound” value is 48%, the Mean stood at 770.1, the “Minus NSB*” value was 462.10 and the “% Inhibition” value stood at 52%. In assay [2], the “% Bound” value was 58.697%, the “% Inhibition” value was found to be 41.303%, the Mean amounted to 1515.1 and the “Minus NSB” value was determined as 608.10.

With `CC(C)c1nc(CC2CC3CCC2C3)n2c1NC(=O)C2C(C)C` (stereo not drawn) [Pool 155], in assay [1], the “% Bound” value is on record as 64%, the Mean is 918.35, the “Minus NSB*” value is reported as 610.35 and the “% Inhibition” value was 36%. Further, in assay [2], the “% Bound” value is reported as 69.040%, the “% Inhibition” value stood at 30.960%, the Mean worked out at 1622.25 and the “Minus NSB” value amounted to 715.25.

For the compound `CC(C)c1nc(CC23CC4CC(CC(C4)C2)C3)n2c1NC(=O)C2C(C)C` (stereo not drawn) [Pool 156], in assay [1], the “% Bound” value was 65%, the Mean is given as 925.85, the “Minus NSB*” value is on record as 617.85 and the “% Inhibition” value is listed as 35%. Further, in assay [2], the “% Bound” value was 78.803%, the “% Inhibition” value was found to be 21.197%, the Mean is 1723.4 and the “Minus NSB” value is given as 816.40.

For the compound `CCC(CC)c1nc(C(C)C)c2n1C(C(C)C)C(=O)N2` (stereo not drawn) [Pool 157], in assay [1], the “% Bound” value came to 65%, the Mean came to 930.35, the “Minus NSB*” value stood at 622.35 and the “% Inhibition” value is 35%. In assay [2], the “% Bound” value is reported as 54.638%, the “% Inhibition” value amounted to 45.362%, the Mean worked out at 1473.05 and the “Minus NSB” value is 566.05.
